Experiments:
[1] = tested on: Aspergillus terreus CECT 2663; test: agar diffusion test with impregnated cellulose discs; assay type: cell-based; details: incl. 6 mm disc
[2] = tested on: Aspergillus niger CECT 2700; test: as above; assay type: cell-based; details: incl. 6 mm disc
[3] = tested on: Pseudomonas aeruginosa ATCC 9027; test: as above; assay type: cell-based; details: incl. 6 mm disc
[4] = tested on: Penicillium sp. (CPC-PT-4); test: agar diffusion test, wild fungi isolated from crown rot in bananas; assay type: cell-based; details: incl. 6 mm disc
[5] = tested on: Colletotrichum sp. (CPC-PC-6); test: as above; assay type: cell-based; details: incl. 6 mm disc
Method: (§1) A. The “in vitro” antimicrobial activity of these compounds was tested (referenced as PTS and PTSO), at different doses, as well as their activity against a broad spectrum of bacteria, fungi and yeasts. The tests were conducted against standard micro-organisms (reference strains from different collections of standard crops) and also against wild strains isolated from different types of rot and fruits and other affected crops.
(§2) These tests of antimicrobial capacity were conducted according to the agar diffusion technique, using cellulose discs 6 mm in diameter, impregnated with the different doses under study. For the assessment of the anti-fungal capability, the medium Sabouraud glucosate agar 2% was used, inoculated with suspensions of spores prepared to a concentration on the order of 10^8 cells/ml. To assess the antibacterial capability, the cultivation medium Müller-Hinton agar was used, inoculated with suspensions of bacteria prepared to a concentration of 10^6 cells/ml.
(§3) Once the plates were inoculated, the discs previously impregnated with the different test doses of each of the compounds to be analyzed were put in place. The reading was taken after incubation of the plates by measuring the zone of inhibition that appeared, and the result was expressed in mm corresponding to the diameter of the halo that appeared (including the 6 mm of the cellulose disc).
(§4) Once the screening of the anti-microbial capability of the compounds claimed by the invention had been performed over a broad range of reference strains, their efficiency was corroborated against wild strains, which we isolated as specific pathogens that affect different crops of different geographic origins.

[6] = tested on: Colletotrichum sp. (CPC-PT-5); test: as above; assay type: cell-based; details: incl. 6 mm disc
Method: as §1, §2, §3, §4

Fusarium sp. (CPC-PT-7) = test: as above; assay type: cell-based; details: incl. 6 mm disc
Method: as §1, §2, §3, §4

Fusarium sp. (CPC-PT-8) = test: as above; assay type: cell-based; details: incl. 6 mm disc
Method: as §1, §2, §3, §4

Fusarium sp. (CPC-PT-9) = test: as above; assay type: cell-based; details: incl. 6 mm disc
Method: as §1, §2, §3, §4

[7] = tested on: Unidentified yeast (CPC-PT-10); test: as above; assay type: cell-based; details: incl. 6 mm disc
Method: as §1, §2, §3, §4

[8] = tested on: Penicillium digitatum Wild strain Supplied by UdL-IRTA; test: agar diffusion test, wild phytopathogens isolated from citrus rot; assay type: cell-based; details: incl. 6 mm disc
[9] = tested on: Penicillium italicum Wild strain Supplied by UdL-IRTA; test: as above; assay type: cell-based; details: incl. 6 mm disc
Botrytis cinerea = test: post-harvest rotting of inoculated pears, drencher treatment; assay type: in vivo; details: 15 days of refrigeration at 5-6° C.
Method: (§5) The effectiveness of the active principle PTS (in various individual doses) was studied in the control of post-harvest rotting of pears and apples caused by the fungi Botrytis cinerea and Penicillium expansum, the principal agents of diseases in these fruits. These phytopathogens can appear in fruit being stored in a cold room and, once in the processing plant and in a later phase, form colonies and are transferred from one fruit to another by contact. The study was performed by means of a controlled inoculation test to ensure a high percentage of affected fruits, and to guarantee that this level of infection is with certainty caused by these pathogens, thereby making it possible to detect and evaluate significant differences between the different treatments. […] To perform the controlled inoculation, wild strains of Botrytris cinerea and Penicillium expansum were used which were isolated in fruit and vegetable processing plants. […] After the time indicated above had passed, the various post-harvest treatments were carried out by means of […] 25° C. for 60 seconds.

Penicillium expansum = test: as above; assay type: in vivo; details: 15 days of refrigeration at 5-6° C.
Method: as §5

`CCCS[S+]([O-])CCC` (centres unmarked) [PTS, Propyl Propyl Thiosulfinate] was tested, and the “diameter of the microbial inhibition halo” value ([1]; 25 ppm) was 12 mm, the “diameter of the microbial inhibition halo” value ([1]; 50 ppm) was 22 mm and the “diameter of the microbial inhibition halo” value ([1]; 100 ppm) was 25 mm. The “diameter of the microbial inhibition halo” value ([2]; 25 ppm) was 10 mm, the “diameter of the microbial inhibition halo” value ([2]; 50 ppm) was 13 mm and the “diameter of the microbial inhibition halo” value ([2]; 100 ppm) was 19 mm. For the same compound, the “diameter of the microbial inhibition halo” value ([3]; 60 ppm) was 8 mm, the “diameter of the microbial inhibition halo” value ([3]; 125 ppm) was 9 mm and the “diameter of the microbial inhibition halo” value ([3]; 250 ppm) was 10 mm. For the same compound, the “diameter of the microbial inhibition halo” value ([3]; 500 ppm) was 12 mm, the “diameter of the microbial inhibition halo” value ([3]; 1000 ppm) was 14 mm and the “diameter of the microbial inhibition halo” value ([4]; 30 ppm) was 0 mm. For the same compound, the “diameter of the microbial inhibition halo” value ([4]; 60 ppm) was 11 mm, the “diameter of the microbial inhibition halo” value ([4]; 125 ppm) was 13 mm and the “diameter of the microbial inhibition halo” value ([4]; 250 ppm) was 20 mm. For the same compound, the “diameter of the microbial inhibition halo” value ([4]; 500 ppm) was 23 mm, the “diameter of the microbial inhibition halo” value ([4]; 1000 ppm) was 25 mm and the “diameter of the microbial inhibition halo” value ([5]; 30 ppm) was 20 mm. The “diameter of the microbial inhibition halo” value ([5]; 60 ppm) was 30 mm, the “diameter of the microbial inhibition halo” value ([5]; 125 ppm) was 35 mm and the “diameter of the microbial inhibition halo” value ([5]; 250 ppm) was 47 mm. The “diameter of the microbial inhibition halo” value ([5]; 500 ppm) was 48 mm, the “diameter of the microbial inhibition halo” value ([5]; 1000 ppm) was 45 mm and the “diameter of the microbial inhibition halo” value ([6]; 30 ppm) was 10 mm. The “diameter of the microbial inhibition halo” value ([6]; 60 ppm) was 20 mm, the “diameter of the microbial inhibition halo” value ([6]; 125 ppm) was 30 mm and the “diameter of the microbial inhibition halo” value ([6]; 250 ppm) was 40 mm. The “diameter of the microbial inhibition halo” value ([6]; 500 ppm) was 43 mm, the “diameter of the microbial inhibition halo” value ([6]; 1000 ppm) was 43 mm and the “diameter of the microbial inhibition halo” value (Fusarium sp. (CPC-PT-7); 30 ppm) was 0 mm. The “diameter of the microbial inhibition halo” value (Fusarium sp. (CPC-PT-7); 60 ppm) was 0 mm, the “diameter of the microbial inhibition halo” value (Fusarium sp. (CPC-PT-7); 125 ppm) was 15 mm and the “diameter of the microbial inhibition halo” value (Fusarium sp. (CPC-PT-7); 250 ppm) was 25 mm. For the same compound, the “diameter of the microbial inhibition halo” value (Fusarium sp. (CPC-PT-7); 500 ppm) was 25 mm, the “diameter of the microbial inhibition halo” value (Fusarium sp. (CPC-PT-7); 1000 ppm) was 35 mm and the “diameter of the microbial inhibition halo” value (Fusarium sp. (CPC-PT-8); 30 ppm) was 0 mm. For the same compound, the “diameter of the microbial inhibition halo” value (Fusarium sp. (CPC-PT-8); 60 ppm) was 10 mm, the “diameter of the microbial inhibition halo” value (Fusarium sp. (CPC-PT-8); 125 ppm) was 12 mm and the “diameter of the microbial inhibition halo” value (Fusarium sp. (CPC-PT-8); 250 ppm) was 15 mm. The “diameter of the microbial inhibition halo” value (Fusarium sp. (CPC-PT-8); 500 ppm) was 20 mm, the “diameter of the microbial inhibition halo” value (Fusarium sp. (CPC-PT-8); 1000 ppm) was 20 mm and the “diameter of the microbial inhibition halo” value (Fusarium sp. (CPC-PT-9); 30 ppm) was 0 mm. For the same compound, the “diameter of the microbial inhibition halo” value (Fusarium sp. (CPC-PT-9); 60 ppm) was 0 mm, the “diameter of the microbial inhibition halo” value (Fusarium sp. (CPC-PT-9); 125 ppm) was 0 mm and the “diameter of the microbial inhibition halo” value (Fusarium sp. (CPC-PT-9); 250 ppm) was 15 mm. For the same compound, the “diameter of the microbial inhibition halo” value (Fusarium sp. (CPC-PT-9); 500 ppm) was 30 mm, the “diameter of the microbial inhibition halo” value (Fusarium sp. (CPC-PT-9); 1000 ppm) was 33 mm and the “diameter of the microbial inhibition halo” value ([7]; 30 ppm) was 40 mm. The “diameter of the microbial inhibition halo” value ([7]; 60 ppm) was 45 mm, the “diameter of the microbial inhibition halo” value ([7]; 125 ppm) was 50 mm and the “diameter of the microbial inhibition halo” value ([7]; 250 ppm) was 55 mm. The “diameter of the microbial inhibition halo” value ([7]; 500 ppm) was 63 mm, the “diameter of the microbial inhibition halo” value ([7]; 1000 ppm) was 65 mm and the “diameter of the microbial inhibition halo” value ([8]; 30 ppm) was 12 mm. The “diameter of the microbial inhibition halo” value ([8]; 60 ppm) was 15 mm, the “diameter of the microbial inhibition halo” value ([8]; 125 ppm) was 20 mm and the “diameter of the microbial inhibition halo” value ([8]; 250 ppm) was 33 mm. For the same compound, the “diameter of the microbial inhibition halo” value ([8]; 500 ppm) was 40 mm, the “diameter of the microbial inhibition halo” value ([8]; 1000 ppm) was 41 mm and the “diameter of the microbial inhibition halo” value ([9]; 30 ppm) was 0 mm. For the same compound, the “diameter of the microbial inhibition halo” value ([9]; 60 ppm) was 0 mm, the “diameter of the microbial inhibition halo” value ([9]; 125 ppm) was 13 mm and the “diameter of the microbial inhibition halo” value ([9]; 250 ppm) was 13 mm. For the same compound, the “diameter of the microbial inhibition halo” value ([9]; 500 ppm) was 15 mm, the “diameter of the microbial inhibition halo” value ([9]; 1000 ppm) was 20 mm and the “% of fruit affected” value (Botrytis cinerea; Decana, 500 ppm) was 0%. For the same compound, the “% of fruit affected” value (Botrytis cinerea; Decana, 666 ppm) was 0%, the “% of fruit affected” value (Botrytis cinerea; Decana, 833 ppm) was 1% and the “% of fruit affected” value (Botrytis cinerea; Decana, 1666 ppm) was 0.5%. For the same compound, the “% of fruit affected” value (Botrytis cinerea; Flor de invierno, 500 ppm) was 3.5%, the “% of fruit affected” value (Botrytis cinerea; Flor de invierno, 666 ppm) was 0.4% and the “% of fruit affected” value (Botrytis cinerea; Flor de invierno, 833 ppm) was 3.7%. The “% of fruit affected” value (Botrytis cinerea; Flor de invierno, 1666 ppm) was 3%, the “% of fruit affected” value (Penicillium expansum; Decana, 500 ppm) was 0% and the “% of fruit affected” value (Penicillium expansum; Decana, 666 ppm) was 2%. For the same compound, the “% of fruit affected” value (Penicillium expansum; Decana, 833 ppm) was 0%, the “% of fruit affected” value (Penicillium expansum; Decana, 1666 ppm) was 3% and the “% of fruit affected” value (Penicillium expansum; Flor de invierno, 500 ppm) was 3.6%. For the same compound, the “% of fruit affected” value (Penicillium expansum; Flor de invierno, 666 ppm) was 2.2%, the “% of fruit affected” value (Penicillium expansum; Flor de invierno, 833 ppm) was 2.4% and the “% of fruit affected” value (Penicillium expansum; Flor de invierno, 1666 ppm) was 5.3%.
In the case of `CCCSS(=O)(=O)CCC` [PTSO, Propyl Propyl Thiosulfonate], the “diameter of the microbial inhibition halo” value ([3]; 60 ppm) is reported as 6.5 mm, the “diameter of the microbial inhibition halo” value ([3]; 125 ppm) is reported as 8 mm and the “diameter of the microbial inhibition halo” value ([3]; 250 ppm) is reported as 9 mm. For the same compound, the “diameter of the microbial inhibition halo” value ([3]; 500 ppm) was 10 mm and the “diameter of the microbial inhibition halo” value ([3]; 1000 ppm) was 12 mm.
